Results: PMC6203852 (British Journal of Cancer, 2018)

Experiments:
[1] = Plasma pharmacokinetics of ARQ 501 (β-lapachone) after intravenous ARQ 761 (UHPLC-MS/MS, two-compartment model); format: in vivo, human; conditions: plasma ARQ 501 after ARQ 761 infusions
Method: During the first and fourth infusions of study drug, serial blood samples for determination of plasma ARQ 501 levels were drawn at the following time points: pre-infusion, infusion start, 15 min, 30 min, 60 min, 120 min (for the 2-h infusion cohort), 15 min post-infusion, 1 h post-infusion, 3 h post-infusion, 5 h post-infusion, 24 h post-infusion, 48 h post-infusion, and 168 h post-infusion. ARQ 501 plasma concentrations were determined using an ultra-high-performance liquid chromatography tandem mass spectrometric analytical method. This method utilised a Nexera Series UHPLC system (Shimadzu Corporation, Kyoto, Japan), which was interfaced with a Sciex QTRAP 5500 mass spectrometer (Foster City, CA, USA).
Sample preparation included a liquid–liquid extraction of ARQ 501 and the internal standard dihydrotanshone (IS) from plasma. Briefly, 100 µL of a 700 ng/mL solution of IS in methanol:acetonitrile (3:1) was added to a 2-mL Eppendorf tube and spun to dryness on a CentriVap benchtop vacuum concentrator (Labconco, Kansas City, USA). To the dried tube, 25-µL aliquots of plasma, 25-µL of blank plasma, and 200-µL de-ionised water were added and vortex mixed. To the resultant solution, a 1-mL aliquot of methyl tert-butyl ether:ethyl acetate (1:1) was added. The mixture was shaken for 10 min at 2500 rpm on a VWR shaker. Samples were then centrifuged for 10 min at 4000 rpm at 4.0 °C. […]

[2] = parameters: method as in PMID 22532167; conditions: animal models; cited from earlier work
[3] = cited from earlier work

## CC1(C)CCC2=C(O1)c1ccccc1C(=O)C2=O [ARQ 501, β-lapachone]
[1]
  Accumulation, Dose 1 vs. Dose 4: does not accumulate to any appreciable extent
[2]
  Duration of methemoglobinaemia: 5 min
[3]
  Predominant dose-limiting toxicity (DLT): haemolytic anaemia
[3]; earlier ARQ 501 compound, no reference given
  MTD: 390 mg/m^2
